Data from the NIST ThermoML archive (doi:10.1016/j.fluid.2010.10.028).

Assay: xn = mol fraction of the nth substance listed
Conditions: Liquid, Vibrating tube method

CC(C)=O [acetone] + CCCCCCC
Conditions	mass density [kg/m3]
347.63 K, 54850 kPa, x1 = 0.492	716.07
347.63 K, 59840 kPa, x1 = 0.801	752.99
347.63 K, 59850 kPa, x1 = 0.492	719.82
347.63 K, 64820 kPa, x1 = 0.801	756.73
347.63 K, 64830 kPa, x1 = 0.492	723.43
347.63 K, 64920 kPa, x1 = 0.611	733.74
347.63 K, 69910 kPa, x1 = 0.801	760.44
347.63 K, 69920 kPa, x1 = 0.611	737.26
347.63 K, 69930 kPa, x1 = 0.492	726.98
347.63 K, 74910 kPa, x1 = 0.492	730.29
347.63 K, 79900 kPa, x1 = 0.492	733.48
347.63 K, 84860 kPa, x1 = 0.801	770.5
347.63 K, 84880 kPa, x1 = 0.492	736.56
347.63 K, 89840 kPa, x1 = 0.801	773.63
347.63 K, 89860 kPa, x1 = 0.492	739.56
347.63 K, 94820 kPa, x1 = 0.801	776.66
347.63 K, 104780 kPa, x1 = 0.801	782.49
347.63 K, 104800 kPa, x1 = 0.492	747.95
347.63 K, 109760 kPa, x1 = 0.611	761.37
347.63 K, 109760 kPa, x1 = 0.801	785.29
347.63 K, 109770 kPa, x1 = 0.492	750.58
347.63 K, 114860 kPa, x1 = 0.801	788.08
347.63 K, 119840 kPa, x1 = 0.801	790.72
347.63 K, 124840 kPa, x1 = 0.492	758.13
347.63 K, 124840 kPa, x1 = 0.611	769.09
347.63 K, 129860 kPa, x1 = 0.492	760.49
347.63 K, 129860 kPa, x1 = 0.801	795.81
347.64 K, 14870 kPa, x1 = 0.611	686.95
347.64 K, 19860 kPa, x1 = 0.611	693.03
347.64 K, 24870 kPa, x1 = 0.611	698.69
347.64 K, 29860 kPa, x1 = 0.611	703.93
347.64 K, 34870 kPa, x1 = 0.611	708.89
347.64 K, 39870 kPa, x1 = 0.611	713.55
347.64 K, 44850 kPa, x1 = 0.611	717.99
347.64 K, 49850 kPa, x1 = 0.611	722.19
347.64 K, 54850 kPa, x1 = 0.611	726.18
347.64 K, 59940 kPa, x1 = 0.611	730.09
347.64 K, 74910 kPa, x1 = 0.611	740.63
347.64 K, 79900 kPa, x1 = 0.611	743.88
347.64 K, 84880 kPa, x1 = 0.611	747.05
347.64 K, 89870 kPa, x1 = 0.611	750.1
347.64 K, 94840 kPa, x1 = 0.611	753.04
347.64 K, 94850 kPa, x1 = 0.492	742.44
347.64 K, 99820 kPa, x1 = 0.492	745.23
347.64 K, 99820 kPa, x1 = 0.611	755.91
347.64 K, 104780 kPa, x1 = 0.611	758.67
347.64 K, 114850 kPa, x1 = 0.492	753.18
347.64 K, 114870 kPa, x1 = 0.611	764.04
347.64 K, 119840 kPa, x1 = 0.611	766.59
347.64 K, 119860 kPa, x1 = 0.492	755.69
347.64 K, 129860 kPa, x1 = 0.611	771.5
357.54 K, 1050 kPa, x1 = 0.7024	664.83
357.54 K, 4810 kPa, x1 = 0.7024	671.47
357.54 K, 9820 kPa, x1 = 0.7024	679.43
357.54 K, 14810 kPa, x1 = 0.7024	686.58
357.54 K, 14860 kPa, x1 = 0.611	677.52
357.54 K, 19810 kPa, x1 = 0.7024	693.14
357.54 K, 24800 kPa, x1 = 0.7024	699.18
357.54 K, 29900 kPa, x1 = 0.7024	704.93
357.54 K, 34880 kPa, x1 = 0.7024	710.21
357.54 K, 39870 kPa, x1 = 0.7024	715.16
357.54 K, 44860 kPa, x1 = 0.7024	719.83
357.54 K, 49860 kPa, x1 = 0.7024	724.29
357.54 K, 54850 kPa, x1 = 0.7024	728.52
357.54 K, 59830 kPa, x1 = 0.7024	732.55
357.54 K, 64830 kPa, x1 = 0.7024	736.42
357.54 K, 69820 kPa, x1 = 0.7024	740.13
357.54 K, 74790 kPa, x1 = 0.7024	743.68
357.54 K, 84760 kPa, x1 = 0.7024	750.39
357.54 K, 94820 kPa, x1 = 0.7024	756.74
357.55 K, 1070 kPa, x1 = 0.611	655.88
357.55 K, 1080 kPa, x1 = 0.492	647.12
357.55 K, 1300 kPa, x1 = 0.4	692.98
357.55 K, 1300 kPa, x1 = 0.8992	692.98
357.55 K, 4850 kPa, x1 = 0.492	653.64
357.55 K, 4860 kPa, x1 = 0.611	662.51
357.55 K, 5030 kPa, x1 = 0.4	699.4
357.55 K, 5030 kPa, x1 = 0.8992	699.4
357.55 K, 9850 kPa, x1 = 0.492	661.43
357.55 K, 9860 kPa, x1 = 0.611	670.41
357.55 K, 10030 kPa, x1 = 0.4	707.18
357.55 K, 10030 kPa, x1 = 0.8992	707.18
357.55 K, 14850 kPa, x1 = 0.492	668.43
357.55 K, 15010 kPa, x1 = 0.4	714.27
357.55 K, 15010 kPa, x1 = 0.8992	714.27
357.55 K, 19840 kPa, x1 = 0.492	674.79
357.55 K, 19870 kPa, x1 = 0.611	684.02
357.55 K, 20010 kPa, x1 = 0.4	720.81
357.55 K, 20010 kPa, x1 = 0.8992	720.81
357.55 K, 24840 kPa, x1 = 0.492	680.72
357.55 K, 24850 kPa, x1 = 0.611	689.97
